Counter-ions that a name gives are not always drawn.
Experiment: Test Example 3: Determination of oil/water partition coefficient (n-octanol / Sorensen buffer pH 7.0, HPLC)
Type: physicochemical
Conditions: dihydrochloride
Protocol: A 10-ml portion, of a solution prepared by dissolving the dihydrochloride of Compound No. 1 in Sorensen buffer solution (pH 7.0) to a concentration of 100 μg/ml is placed in a 50-ml centrifuagl tube, followed by addition of 10 ml of n-octanol. After shaking at 25° C. for 10 minutes, the mixture is centrifuged and the concentration of the cephalosporin compound in the aqueous layer is determined by high performance liquid chromatography [column: μ-Bondapak C-18 produced by Waters Associates, Canada; eluent: 0.05 M ammonium sulfate solution+acetonitrile+acetic acid (400:200:1 v/v)]. A value of 0.45 μg/ml is obtained. From this value, the oil/water partition coefficient is calculated as follows: [formula]

**Q.** With `CC(OC(=O)OC1CCCCC1)OC(=O)C1=C(CSc2nnnn2CCN(C)C)CS[C@@H]2[C@H](NC(=O)Cc3csc(N)n3)C(=O)N12` (stereo partly drawn) [Compound No. 1, 1-(cyclohexyloxycarbonyloxy)ethyl 7β-[2-(2-aminothiazol-4-yl)acetamido]-3-[[[1-(2-dimethylaminoethyl-1H-tetrazol-5-yl]thio]methyl]ceph-3-em-4-carboxylatedihydrochloride] as the compound, how does the “concentration of the cephalosporin compound in the aqueous layer” value (initial 100 μg/ml in Sorensen buffer pH 7.0, equal volume n-octanol, 25° C., 10 minutes shaking) read?
**A.** The value was 450 ng/mL.

**Q.** What about the logD (n-octanol/Sorensen buffer pH 7.0, 25° C., calculated from aqueous concentration) of the same compound?
**A.** The logD was 2.34.

From patent US4616008A, “Antibacterial solid composition for oral administration” (Takeda Chemical Industries, Ltd., priority 1984, dated 1986)
